In brackets after ≈: the same amount, converted by molar mass.
Conditions: for aqueous solubility: pH 6.8

Row | MDR1-MDCK efflux ratio | intrinsic clearance, human liver microsomes [mL/min/kg] | intrinsic clearance, rat liver microsomes [mL/min/kg] | aqueous solubility [µg/mL] | fraction unbound, human plasma | fraction unbound, rat plasma | Compound
1 | 2.39 | 196 | 2510 | – | – | – | Cc1ccc2c(c1)cc(C(=O)N1CCOC(C(=O)N3CCc4ccccc4C3)C1)n2C (configuration not stated)
2 | 5.67 | 53.3 | 182 | 36.5 (≈ 117 µM) | – | – | Cc1ccc(-n2nc(C(=O)N3CC(O)C3)c3c2CCCC3)cc1
3 | 0.746 | 34.6 | 63.2 | 30 (≈ 98.5 µM) | – | – | Cc1nc(Cl)cc(Nc2ccc3c(c2)N(C)C(=O)CO3)n1
4 | – | 273 | 4500 | 53.2 (≈ 165 µM) | – | – | O=C(C1CCCN(c2cnccn2)C1)N1CCc2ccccc2C1 (configuration not stated)
5 | 0.825 | ≤ 4.74 | 280 | 40.1 (≈ 129 µM) | – | – | CCCN1CCn2nc(-c3nc4cc(OC)ccc4[nH]3)cc2C1
6 | – | ≤ 4.74 | 19.6 | 36.8 (≈ 112 µM) | – | – | CN(CCN(C)C1CCCC1)C(=O)c1ccc(-c2nc[nH]n2)cc1
7 | 0.926 | 460 | 2020 | 37.1 (≈ 112 µM) | – | – | CC(C(=O)Nc1ccccc1)N1CCCN(c2nccs2)CC1 (configuration not stated)
8 | 30.5 | ≤ 4.74 | 98.3 | 35 (≈ 122 µM) | – | – | Cc1cccc(-n2cnnc2CCCN2CCOCC2)c1
9 | 43.4 | 6.19 | 86.6 | – | – | – | CN1CCc2ccc(C(=O)NCCC(=O)Nc3cccnc3)cc21
10 | 25 | 9.8 | 330 | 32.7 (≈ 98.6 µM) | 0.104 | 0.106 | OC[C@H](Nc1cncc(-c2ccc3[nH]ncc3n2)c1)c1ccccc1
11 | – | – | – | 0.35 (≈ 1.09 µM) | – | – | COc1cccc(/C=C2/N=C(c3ccccc3C)NC2=O)c1OC
12 | 0.507 | – | – | 0.19 (≈ 0.727 µM) | – | – | N#Cc1ccc(COc2cnc3ccccc3n2)cc1
13 | 17.2 | 5.64 | 163 | – | – | – | CCN(Cc1cnn(C(C)C)c1)C(=O)NCCC(C)(C)OC
14 | 0.871 | 9.21 | 254 | 41.4 (≈ 131 µM) | – | – | Cc1nc(NC2(c3cccc(Cl)c3)CC2)c2c(C)noc2n1
15 | 8.05 | ≤ 4.74 | ≤ 10.7 | 50.6 (≈ 198 µM) | – | – | CC(C)(C)CC(=O)N1CCC(OCCCN)CC1
16 | – | – | – | 61.2 (≈ 165 µM) | – | – | Cc1nonc1C(=O)NCCc1c[nH]c2cccc(C3(O)CCOCC3)c12
17 | 0.798 | 188 | 1480 | 45.5 (≈ 154 µM) | – | – | C=CCN(Cc1cccnc1)c1nc(C)nc2sccc12
18 | 2.06 | 31.9 | 465 | 55.8 (≈ 149 µM) | – | – | COc1ccc(-c2ccc(CN(CCN(C)C)Cc3ccncc3)cc2)cc1
19 | 1.46 | ≤ 4.74 | ≤ 10.7 | 21.8 (≈ 59.6 µM) | – | – | O=c1c(-c2ccc(F)cc2)c(-c2ccncc2)[nH]n1-c1ccc(Cl)cc1

Row | MDR1-MDCK efflux ratio | intrinsic clearance, human liver microsomes [mL/min/kg] | intrinsic clearance, rat liver microsomes [mL/min/kg] | aqueous solubility [µg/mL] | fraction unbound, human plasma | fraction unbound, rat plasma | Compound
20 | 41.3 | 8.28 | 118 | 66.6 (≈ 169 µM) | – | – | Cc1cc(C)nc(Nc2ccc(C3CCCN(CC(=O)N4CCCC4)C3)nc2)n1 (configuration not stated)
21 | 0.738 | – | – | 0.77 (≈ 2.24 µM) | – | – | Cc1cc(C)c(NC(=O)Cn2nnn(-c3cccs3)c2=O)c(C)c1
22 | – | 41.4 | 168 | 11.5 (≈ 26.6 µM) | – | – | Cc1ccc(CNC(=O)CN2CCC(n3nnc4cc(C(F)(F)F)ccc43)CC2)cc1
23 | 0.885 | 88.9 | 971 | 35.4 (≈ 103 µM) | – | – | Fc1ccc2[nH]c(CO[C@H]3CN(Cc4ccccc4)C[C@H]3F)nc2c1
24 | 0.981 | ≤ 4.74 | 359 | – | – | – | COc1ccc(C)nc1-c1ccc(OC)c(OC)c1OC
25 | 8.83 | ≤ 4.74 | 59.6 | 61.8 (≈ 190 µM) | – | – | CC(=O)N1CCN(C(=O)CCc2ccc(-c3ccccc3)[nH]2)CC1
26 | 33.5 | ≤ 4.74 | 58.1 | – | – | – | CN(Cc1ccc(N)nc1)c1nc2cc(F)ccc2o1
27 | – | 8.22 | 147 | – | – | – | O=C(Nc1nnc[nH]1)c1ccc(C2SCCCS2)cc1
28 | – | – | – | 44 (≈ 172 µM) | – | – | CC(C)(C)OC(=O)N1CC=C(CCC(=O)NO)C1
29 | 26.5 | 82.5 | 507 | 25.8 (≈ 64.8 µM) | – | – | CC(=O)Nc1ccnn1C1CCN(Cc2ccccc2C#Cc2ccccc2)CC1
30 | 0.636 | 124 | 4310 | 74.7 (≈ 254 µM) | – | – | Cc1cccnc1NC(=O)Cc1coc2c(C)c(C)ccc12
31 | – | – | – | – | 0.00062 | 0.00051 | COc1cc2c(cc1OC)CN(CCc1ccc(NC(=O)c3cccc4c(O)c5cccc(OC)c5nc34)cc1)CC2
32 | – | 15 | 458 | – | – | – | CN(Cc1cnccn1)Cc1nc(N)c2ccccc2n1
33 | 0.754 | 18.6 | 183 | 57.7 (≈ 193 µM) | – | – | COc1cccc(CN(C)c2ncnc3c2CN(C)CC3)c1
34 | – | – | – | 0.9 (≈ 2.14 µM) | – | – | COC(=O)c1ccc2c(c1)CCN2S(=O)(=O)c1ccc(Cl)c(C(F)(F)F)c1
35 | 8.5 | ≤ 4.74 | ≤ 10.7 | 1.95 (≈ 3.4 µM) | – | – | CN(c1ccc(NC(=O)Nc2ccc(OC(F)(F)F)cc2)cc1)c1ccnc(Nc2cccc(S(N)(=O)=O)c2)n1
36 | – | 89.7 | 1060 | 34.2 (≈ 138 µM) | – | – | CCONC(=O)Cc1coc2c(C)c(C)ccc12
37 | 30.3 | ≤ 4.74 | 268 | – | – | – | Cc1cc(-c2cn(C)nc2[C@H]2CC[C@H](CNC(=O)C(C)C)CC2)on1
38 | 17.8 | 117 | 1550 | 4.15 (≈ 11.5 µM) | – | – | c1ccc(-c2cc3c(N4CCC(c5ncc[nH]5)CC4)ncnc3s2)cc1

Row | MDR1-MDCK efflux ratio | intrinsic clearance, human liver microsomes [mL/min/kg] | intrinsic clearance, rat liver microsomes [mL/min/kg] | aqueous solubility [µg/mL] | fraction unbound, human plasma | fraction unbound, rat plasma | Compound
39 | – | 14.7 | 258 | 30.4 (≈ 72.7 µM) | – | – | COCCOc1ccc2c(c1)ncn2-c1ccc2cccc(N3CCC(N)CC3)c2n1
40 | 0.652 | ≤ 4.74 | 72 | 23.9 (≈ 110 µM) | – | – | Cc1cccn(Cc2cccc(F)c2)c1=O
41 | 12.8 | ≤ 4.74 | ≤ 10.7 | 44.6 (≈ 167 µM) | – | – | CCc1nnc(NC(=O)Cc2c(C)noc2C)s1
42 | – | 35.5 | 110 | 57.9 (≈ 170 µM) | – | – | O=C(O)c1cc2cc(O)c(O)cc2c(C(=O)c2ccc(O)c(O)c2)n1
43 | 0.655 | 400 | – | – | 0.00911 | – | Cc1ccc(OCC2(O)CCN(CC3(O)CCN(c4ccccc4C)CC3)CC2)cc1
44 | – | – | – | 33.8 (≈ 169 µM) | – | – | N#Cc1cccc(NC(=O)C2CCC2)c1
45 | 1.2 | 10.7 | 114 | 6.21 (≈ 17.4 µM) | – | – | c1ccc(-c2n[nH]c(C3CCN(c4cnc5ccccc5n4)CC3)n2)cc1
46 | – | – | – | 0.3 (≈ 0.535 µM) | – | – | CC(C)(C)c1cc(NC(=O)Nc2ccc(-c3cn4c(n3)sc3cc(OCCN5CCOCC5)ccc34)cc2)no1
47 | – | 21.1 | – | – | 0.0383 | 0.0592 | O=C(Nc1cccc2c(=O)cc(-c3nnn[nH]3)oc12)c1ccc(OCCCCc2ccccc2)cc1
48 | – | – | – | – | 0.00076 | 0.0015 | COc1cc2nc(-c3cc(F)ccc3O)nc(N[C@@H]3CNC[C@H]3C(C)(C)O)c2cc1OC.Cl
49 | 0.541 | 75.1 | 420 | – | – | – | c1ccc(-c2nc(CSc3ccc(-n4cccn4)nn3)cs2)cc1
50 | 4.05 | 285 | 436 | – | – | – | CC(C)N(C(=O)Cn1cccc2cc(C(F)F)nc1-2)C(C)C
51 | – | 25.8 | 597 | – | – | – | CCc1cc2c(OCC(=O)N3CCCC3)ncnc2s1
52 | – | 15.9 | 657 | 17.3 (≈ 77.3 µM) | – | – | CC(C)c1noc(CN(C)C2CCCC2)n1
53 | 0.764 | 64.8 | 1090 | 11.4 (≈ 33.7 µM) | – | – | Cc1ccc(CN(C)C(=O)c2cn(Cc3ccccc3F)nn2)cc1
54 | 5.9 | 5.64 | 131 | 30.6 (≈ 83.3 µM) | – | – | CS(=O)(=O)CCc1nc(C2(c3ccccc3)CC2)nn1-c1ccccc1
55 | 2.25 | 56.7 | 442 | 52.2 (≈ 155 µM) | – | – | N#Cc1cccc(CN2CCC=C(CNC(=O)c3cccs3)C2)c1
56 | 1.18 | – | – | 0.45 (≈ 1.07 µM) | – | – | CCN(c1ccccc1)S(=O)(=O)c1ccc(C(=O)Nc2ccccc2C(C)=O)cc1
57 | 0.854 | ≤ 4.74 | 1520 | – | – | – | CN1CCC(CNc2nccc3cccnc23)CC1

Row | Compound | MDR1-MDCK efflux ratio | intrinsic clearance, human liver microsomes [mL/min/kg] | intrinsic clearance, rat liver microsomes [mL/min/kg] | aqueous solubility [µg/mL] | fraction unbound, human plasma | fraction unbound, rat plasma
58 | COc1cccc(CN2CCN(C(=O)Cc3ccc(C)cc3)[C@@H](C)C2)c1 | 0.739 | 230 | 988 | 44 (≈ 125 µM) | – | –

Source: the Biogen ADME set (Fang et al. 2023)
